The target in one experiment is T1, h-cGAS (Homo sapiens, UniProt Q8N884).
T1 construct: The final concentration of full-length h-cGAS, dsDNA, ATP, and GTP were 100 nM
The experiment can be described thus: cGAS biochemical assay, RapidFire 365 mass spectrometry (RF-MS). As to conditions: full-length h-cGAS 100 nM, dsDNA 25 nM, ATP and GTP 100 μM, 7 h at RT.

The next experiment has as its system THP1-Dual cells. The experiment can be described thus: Cell-based Lucia luciferase assay in THP1-Dual cells (dsDNA transfection). As to conditions: Homo sapiens, 1 h pre-incubation, 100-bp dsDNA transfection for 24 h.

The structures appear in SMILES notation.

T1 sequence (Q8N884 whole entry): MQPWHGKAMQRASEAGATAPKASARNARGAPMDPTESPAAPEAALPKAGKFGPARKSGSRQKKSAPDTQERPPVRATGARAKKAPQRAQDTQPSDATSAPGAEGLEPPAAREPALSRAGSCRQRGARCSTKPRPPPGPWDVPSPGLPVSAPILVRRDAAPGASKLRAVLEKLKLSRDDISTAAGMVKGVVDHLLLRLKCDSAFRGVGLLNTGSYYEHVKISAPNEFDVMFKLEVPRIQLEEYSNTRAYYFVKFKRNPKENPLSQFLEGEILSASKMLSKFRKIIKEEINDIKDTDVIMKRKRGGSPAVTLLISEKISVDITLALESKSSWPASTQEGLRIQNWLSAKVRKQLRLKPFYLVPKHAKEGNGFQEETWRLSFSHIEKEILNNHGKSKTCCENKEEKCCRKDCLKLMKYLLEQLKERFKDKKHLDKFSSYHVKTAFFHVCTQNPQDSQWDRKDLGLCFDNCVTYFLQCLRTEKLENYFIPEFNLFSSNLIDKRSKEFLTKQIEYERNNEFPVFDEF

With `Cn1ccc(-c2cc(Br)c(F)c3[nH]c4c(c23)CN(C(=O)CO)CC4)n1` [TDI-008783], the 50% inhibitory concentration (IC50) – broadly, the concentration at which inhibition is half-maximal – against h-cGAS was 0.0172 µM; in the experiment with THP1-Dual cells, 3.41 µM. Turning to `O=C(CO)N1CCc2[nH]c3c(F)c(Cl)cc(N4CCCC4)c3c2C1` [TDI-008860], the concentration for half-maximal inhibition (IC50) on h-cGAS is 0.35 µM; with THP1-Dual cells, more than 10 µM. With `O=C(CO)N1CCc2[nH]c3c(Cl)c(Cl)cc(-c4ccco4)c3c2C1` [TDI-008070], the values for the IC50 on h-cGAS and with THP1-Dual cells were 0.0228 µM and 4.95 µM, respectively. The like results for `Cn1c2c(c3ccc(Cl)c(F)c31)CN(C(=O)CO)CC2` [TDI-006570] were, in that order, 0.138 µM and more than 40 µM.

As for `O=C(CO)N1CCc2[nH]c3c(F)c(Cl)cc(-c4cn[nH]c4)c3c2C1` [TDI-008185], the figures for the 50% inhibitory concentration (IC50) at h-cGAS and with THP1-Dual cells were 0.0322 µM and 9.9 µM, respectively. As to `C[C@H]1CN(C(=O)CO)Cc2c1[nH]c1c(F)c(Cl)cc(-c3ccn(C)n3)c21` [TDI-009001], the IC50 against h-cGAS is 0.0327 µM; in the experiment on THP1-Dual cells, 3.18 µM. The like results for `O=C(CO)N1CCc2[nH]c3c(Cl)c(Cl)cc(-c4cnn5ccccc45)c3c2C1` [TDI-008116] were, in that order, 0.0252 µM and 6.43 µM.

Regarding `O=C(CO)N1CCc2[nH]c3c(Cl)c(Cl)cc(-c4ccccc4)c3c2C1` [TDI-008071], the 50% inhibitory concentration (IC50) turned out to be 0.0393 µM at h-cGAS and 9 µM in the experiment on THP1-Dual cells. In the same order, the values of `CC1CCN(c2cc(Cl)c(F)c3[nH]c4c(c23)CN(C(=O)CO)CC4)C1` (stereo not drawn) [TDI-008863] are 0.147 µM and more than 10 µM.

Regarding `Cn1ccc(-c2cc(Cl)c(C#N)c3[nH]c4c(c23)CN(C(=O)CO)CC4)n1` [TDI-009208], the IC50 against h-cGAS amounted to 0.0392 µM; in the experiment on THP1-Dual cells, 4.4 µM. Regarding `N#CC1CCN(c2cc(Cl)c(F)c3[nH]c4c(c23)CN(C(=O)CO)CC4)C1` (stereo not drawn) [TDI-008865], the IC50 on h-cGAS is 1.58 µM; in the experiment with THP1-Dual cells it was more than 10 µM. The like results for `O=C(CO)N1CCc2[nH]c3c(F)c(Cl)cc(N4CCC5CC54)c3c2C1` (stereo not drawn) [TDI-008861] were, in that order, 0.48 µM and more than 10 µM. The like results for `C[C@@H]1CN(C(=O)CO)Cc2c1[nH]c1c(F)c(Cl)cc(-c3ccn(C)n3)c21` [TDI-009000] were, in that order, 0.0245 µM and 2.89 µM.

In the case of `CCn1ccc(-c2cc(Cl)c(Cl)c3[nH]c4c(c23)CN(C(=O)CO)CC4)n1` [TDI-008371], the IC50 turned out to be 0.0232 µM on h-cGAS and 6.52 µM in the experiment on THP1-Dual cells. Compound `Cc1ncccc1-c1cc(Cl)c(Cl)c2[nH]c3c(c12)CN(C(=O)CO)CC3` [TDI-008446] had an IC50 on h-cGAS of 0.901 µM. This lies in the sub-micromolar range. With `Cc1c(-c2cc(Cl)c(Cl)c3[nH]c4c(c23)CN(C(=O)CO)CC4)cnn1C` [TDI-008094], on h-cGAS, inhibition was half-maximal at 0.371 µM (IC50).

`COc1ccnc(-c2cc(Cl)c(Cl)c3[nH]c4c(c23)CN(C(=O)CO)CC4)c1` [TDI-008104]: at h-cGAS, 0.0952 µM corresponded to half-maximal inhibition (IC50). On the same count and under the same terms, next, `Cc1cc(-c2cc(Cl)c(Cl)c3[nH]c4c(c23)CN(C(=O)CO)CC4)nn1C` [TDI-008093]: 0.33 µM.

In the case of `Cc1nc(C)c(-c2cc(Cl)c(Cl)c3[nH]c4c(c23)CN(C(=O)CO)CC4)[nH]1` [TDI-008605], 0.568 µM corresponded to half-maximal inhibition on h-cGAS (IC50). This IC50 lies about 1.7-fold higher than the previous one. For `Cc1ncc(-c2cc(Cl)c(Cl)c3[nH]c4c(c23)CN(C(=O)CO)CC4)cn1` [TDI-008088], inhibition against h-cGAS was half-maximal at 0.0569 µM (IC50). Still for that read-out and setting: with `COc1cccnc1-c1cc(Cl)c(Cl)c2[nH]c3c(c12)CN(C(=O)CO)CC3` [TDI-008103] the figure was 0.0441 µM; with `CCn1c2c(c3ccc(Br)c(F)c31)CN(C(=O)CO)CC2` [TDI-008062], 1.03 µM.

On h-cGAS, `Cn1c2c(c3ccc(Cl)c(Cl)c31)CN(C(=O)CO)CC2` [TDI-006366] had an IC50 of 0.201 µM. Against the preceding compound, the IC50 is about 5.1-fold lower.

Regarding `N#Cc1cc2c3c([nH]c2c(F)c1Cl)CCN(C(=O)CO)C3` [TDI-007542], at h-cGAS, the IC50 turned out to be 1.23 µM. Still for that read-out and setting: next, `O=C(CO)N1CCc2[nH]c3c(Cl)c(Cl)cc(-c4cncc(F)c4)c3c2C1` [TDI-008448]: 0.0259 µM; `COCC(=O)N1CCc2[nH]c3c(OC)c(Cl)ccc3c2C1` [TDI-005777]: 24.7 µM.

`CN(C)c1cccc(-c2cc(Cl)c(Cl)c3[nH]c4c(c23)CN(C(=O)CO)CC4)c1` [TDI-008120]: the half-inhibitory concentration (IC50) against h-cGAS amounted to 0.438 µM. Against the preceding compound, the IC50 is about 56-fold lower.

As to `COCC(=O)N1CCc2[nH]c3c(Br)c(Cl)ccc3c2C1` [TDI-005776], half-maximal inhibition on h-cGAS (IC50) was put at 0.203 µM. The same measure, in the same setting: next, `O=C(CO)N1CCc2[nH]c3c(F)c(Cl)c(Br)cc3c2C1` [TDI-007362]: 0.591 µM; `CCOCC(=O)N1CCc2[nH]c3c(Cl)c(Cl)ccc3c2C1` [TDI-005716]: 1.51 µM.

At h-cGAS, `COCC(=O)N1CCc2[nH]c3c(Cl)c(C#N)ccc3c2C1` [TDI-006171] registered a half-inhibitory concentration (IC50) of 7.69 µM. Compound `Cc1c(Cl)ccc2c3c([nH]c12)CCN(C(=O)CO)C3` [TDI-006360] yielded a concentration for half-maximal inhibition (IC50) at h-cGAS of 0.327 µM. Consider `COCC(=O)N1CCc2c(c3ccc(Br)c(F)c3n2C)C1` [TDI-008034], for which the IC50 at h-cGAS came out at 0.401 µM.

As to `COCC(=O)N1CCc2[nH]c3cc(Cl)ccc3c2C1` [TDI-005324], inhibition against h-cGAS was half-maximal at 4.02 µM (IC50). Still for that read-out and setting: next, `Cc1nn(C)cc1-c1cc(Cl)c(Cl)c2[nH]c3c(c12)CN(C(=O)CO)CC3` [TDI-008092]: 1.84 µM. On the same count and under the same terms, with `Cn1cccc1-c1cc(Cl)c(Cl)c2[nH]c3c(c12)CN(C(=O)CO)CC3` [TDI-008075] the figure was 0.469 µM. On h-cGAS, `CN(C)Cc1cc(Cl)c(Cl)c2[nH]c3c(c12)CN(C(=O)CO)CC3` [TDI-008437] displayed an IC50 of 0.35 µM. This IC50 and that of the compound before are within 1.5-fold of each other.

At h-cGAS, `CC(=O)Nc1cc(Cl)c(F)c2[nH]c3c(c12)CN(C(=O)CO)CC3` [TDI-008522] had a 50% inhibitory concentration (IC50) of 0.365 µM.

For the compound `O=C(CO)N1CCc2[nH]c3c(Cl)c(Cl)cc(-c4ccn[nH]4)c3c2C1` [TDI-007457], at h-cGAS, the IC50 was found to be 0.0541 µM. The same measure, in the same setting: with `Cn1nc(C(F)(F)F)cc1-c1cc(Cl)c(Cl)c2[nH]c3c(c12)CN(C(=O)CO)CC3` [TDI-008452] the figure was 2.91 µM; with `C[C@@H]1CN(C(=O)CO)Cc2c1[nH]c1c(Cl)c(Cl)ccc21` [TDI-007576], 0.323 µM. Same read-out and setting: with `COc1ncc(-c2cc(Cl)c(Cl)c3[nH]c4c(c23)CN(C(=O)CO)CC4)cn1` [TDI-008112] the figure was 0.201 µM; with `Nc1ccc(-c2cc(Cl)c(Cl)c3[nH]c4c(c23)CN(C(=O)CO)CC4)cc1` [TDI-008083], 0.0203 µM; with `Cn1cc(-c2cc(Cl)c(Cl)c3[nH]c4c(c23)CN(C(=O)CO)CC4)ccc1=O` [TDI-008108], 0.552 µM. On to `O=C(CO)N1CCc2[nH]c3c(Cl)c(Cl)cc(-c4ccn(C(F)F)n4)c3c2C1` [TDI-008474], for which, on h-cGAS, the concentration for half-maximal inhibition (IC50) was found to be 0.018 µM. Compound `Cc1noc(C)c1-c1cc(Cl)c(Cl)c2[nH]c3c(c12)CN(C(=O)CO)CC3` [TDI-008096] yielded a 50% inhibitory concentration (IC50) against h-cGAS of 5.95 µM. This IC50 is about 330-fold higher than that of the compound before. Same read-out and setting: next, `O=C(CO)N1CCc2[nH]c3c(Cl)c(Cl)ccc3c2CC1` [TDI-006183]: 0.469 µM; `N#Cc1cccc(-c2cc(Cl)c(Cl)c3[nH]c4c(c23)CN(C(=O)CO)CC4)c1` [TDI-008098]: 0.0853 µM; `O=C(CO)N1CCc2[nH]c3c(Cl)c(Cl)cc(-c4ccccc4F)c3c2C1` [TDI-008090]: 0.0267 µM. The same measure, in the same setting: next, `N#Cc1ncc(-c2cc(Cl)c(Cl)c3[nH]c4c(c23)CN(C(=O)CO)CC4)cn1` [TDI-008100]: 5.27 µM; `O=C(CO)N1CCc2[nH]c3c(Br)c(Cl)ccc3c2C1` [TDI-006261]: 0.14 µM. For `C=Cc1ccc2c3c([nH]c2c1F)CCN(C(=O)CO)C3` [TDI-006923], the IC50 on h-cGAS is 19.3 µM.
